{"source": "ChEMBL document CHEMBL5390312", "about": "“Discovery of Tumor-Targeted 6-Methyl Substituted Pemetrexed and Related Antifolates with Selective Loss of RFC Transport” (ACS Med Chem Lett, 2023)", "assay_type_in_all_cases": "functional, cell-based", "key": {"KB [1]": {"test_system": "KB", "assay": "Antiproliferative activity against human KB cells assessed as inhibition of cell growth upto 1000 nM incubated for 96 hrs in the presence of thymidylate by CellTiter-Blue cell viability assay"}, "KB [2]": {"test_system": "KB", "assay": "Antiproliferative activity against human KB cells assessed as inhibition of cell growth upto 1000 nM incubated for 96 hrs in the presence of AICA by CellTiter-Blue cell viability assay"}, "KB [3]": {"test_system": "KB", "assay": "Antiproliferative activity against human KB cells assessed as inhibition of cell growth upto 1000 nM incubated for 96 hrs in the presence of thymidine by CellTiter-Blue cell viability assay"}, "KB [4]": {"test_system": "KB", "assay": "Antiproliferative activity against human KB cells assessed as inhibition of cell growth upto 1000 nM incubated for 96 hrs in the presence of adenosine by CellTiter-Blue cell viability assay"}, "[5]": {"assay": "Antiproliferative activity against chinese hamster R2 cells assessed as inhibition of cell growth incubated for 96 h by CellTiter-Blue cell viability assay", "settings": "Cricetulus griseus, R2, 96 h"}, "KB [6]": {"test_system": "KB", "assay": "Antiproliferative activity against human KB cells assessed as inhibition of cell growth upto 1000 nM incubated for 96 hrs in the presence of glycine by CellTiter-Blue cell viability assay"}}, "note": "Calls of active or inactive are those of the source. The calls are words filed in the database; no cut-off is given here."}
{"compound": "Nc1nc2[nH]cc(CCc3ccc(C(=O)N[C@@H](CCC(=O)O)C(=O)O)c(F)c3)c2c(=O)[nH]1", "values": [{"measurement": "Activity", "setting": "KB [1]", "result": "Active"}, {"measurement": "Activity", "setting": "KB [2]", "result": "inactive"}, {"measurement": "Activity", "setting": "KB [3]", "result": "inactive"}, {"measurement": "Activity", "setting": "KB [4]", "result": "inactive"}, {"measurement": "IC50", "setting": "[5]", "result": "> 1000", "unit": "nM"}]}
{"compound": "Nc1nc2[nH]cc(CCc3ccc(C(=O)N[C@@H](CCC(=O)O)C(=O)O)cc3)c2c(=O)[nH]1", "note": "[PEMETREXED]", "values": [{"measurement": "Activity", "setting": "KB [1]", "result": "Active"}, {"measurement": "Activity", "setting": "KB [2]", "result": "inactive"}, {"measurement": "Activity", "setting": "KB [3]", "result": "inactive"}, {"measurement": "Activity", "setting": "KB [4]", "result": "inactive"}, {"measurement": "IC50", "setting": "[5]", "result": "> 1000", "unit": "nM"}]}
{"compound": "Cc1[nH]c2nc(N)[nH]c(=O)c2c1CCc1ccc(C(=O)N[C@@H](CCC(=O)O)C(=O)O)c(F)c1", "values": [{"measurement": "Activity", "setting": "KB [2]", "result": "inactive"}, {"measurement": "Activity", "setting": "KB [4]", "result": "inactive"}, {"measurement": "IC50", "setting": "[5]", "result": "> 1000", "unit": "nM"}]}
{"compound": "Nc1nc2[nH]cc(CCc3ccc(C(=O)N[C@@H](CCC(=O)O)C(=O)O)s3)c2c(=O)[nH]1", "values": [{"measurement": "IC50", "setting": "[5]", "result": "> 1000", "unit": "nM"}]}
{"compound": "Nc1nc2[nH]cc(CCCc3ccc(C(=O)N[C@@H](CCC(=O)O)C(=O)O)cc3)c2c(=O)[nH]1", "values": [{"measurement": "Activity", "setting": "KB [1]", "result": "Active"}, {"measurement": "Activity", "setting": "KB [2]", "result": "inactive"}, {"measurement": "Activity", "setting": "KB [3]", "result": "inactive"}, {"measurement": "Activity", "setting": "KB [4]", "result": "inactive"}, {"measurement": "IC50", "setting": "[5]", "result": "> 1000", "unit": "nM"}, {"measurement": "Activity", "setting": "KB [6]", "result": "inactive"}]}
{"compound": "Cc1[nH]c2nc(N)[nH]c(=O)c2c1CCc1ccc(C(=O)N[C@@H](CCC(=O)O)C(=O)O)cc1", "values": [{"measurement": "Activity", "setting": "KB [2]", "result": "inactive"}, {"measurement": "Activity", "setting": "KB [4]", "result": "inactive"}, {"measurement": "IC50", "setting": "[5]", "result": "> 1000", "unit": "nM"}]}
{"compound": "Cc1[nH]c2nc(N)[nH]c(=O)c2c1CCc1ccc(C(=O)N[C@@H](CCC(=O)O)C(=O)O)s1", "values": [{"measurement": "Activity", "setting": "KB [2]", "result": "inactive"}, {"measurement": "Activity", "setting": "KB [4]", "result": "inactive"}, {"measurement": "IC50", "setting": "[5]", "result": "> 1000", "unit": "nM"}]}
{"compound": "Cc1[nH]c2nc(N)[nH]c(=O)c2c1CCCc1ccc(C(=O)N[C@@H](CCC(=O)O)C(=O)O)cc1", "values": [{"measurement": "Activity", "setting": "KB [2]", "result": "inactive"}, {"measurement": "Activity", "setting": "KB [4]", "result": "inactive"}, {"measurement": "IC50", "setting": "[5]", "result": "> 1000", "unit": "nM"}]}
